The source of these data is paper PMC12657321, “Pre-clinical evaluation of a potent and effective Pin1-degrading agent in pancreatic cancer” (Molecular Therapy Oncology, 2025).

Non-standard residues stand in square brackets, D forms with d. Residues, ends and D or L forms follow the SMILES beside them. *: point of attachment. Trp(6-Cl) = N[C@@H](Cc1c[nH]c2cc(Cl)ccc12)C(=O)O; Pip = O=C(O)[C@@H]1CCCCN1; ClAc = O=C(CCl)*

One data set has as its target T1, Pin1 in MIA PaCa-2 cells (Homo sapiens, UniProt Q13526).
T1 construct: endogenous in cells; host or cells: BxPC3, MIA PaCa-2
Description: Pin1 degradation by western blot in MIA PaCa-2 cells. It is filed as cell-based. The note with it: MIA PaCa-2, 0.5-15 μM for 24 h, Pin1 relative to β-actin. Here is the method: (§1) To ascertain that the plasma-stable agent 164B8 retained its ability to induce Pin1 degradation in cells, we tested it in three pancreatic cancer cell lines—human BxPC3 and MIA PaCa-2, and the mouse pancreatic cancer cell line KPC—using western blot analysis (Figure 2).
(§2) Figure 2 Degradation of Pin1 in different cell lines in response to 164B8 treatment BxPC3, MIA PaCa-2, and KPC were each treated with 0.1% DMSO and concentrations of 164B8 ranging between 0.5 and 15 μM for 24 h, and Pin1 levels were quantified with respect to β-actin using a specific anti-Pin1 antibody and western blotting (uncropped blots are reported in Figure S6).
(§3) At the end of the treatments, cells were lysed with a lysis buffer containing 20 mM Tris (pH 7.4), 1% Triton X-100, 5 mM EDTA, 0.1% sodium dodecyl sulfate (SDS), 1% IGEPAL, 0.5% sodium deoxycholate, 120 mM NaCl, and a protease inhibitor cocktail and PhosSTOP (Sigma-Aldrich). Lysates were then centrifuged at 16,000 × g for 20 min at 4°C, and the supernatants were collected. Protein concentrations were determined using the Pierce BCA Protein Assay Kit (Thermo Fisher Scientific) according to the manufacturer’s protocol. For traditional western blotting (Figure 2), samples were loaded onto precast Bis-Tris gels and subsequently transferred onto PVDF membranes. […]

A short description of data set [1]: Stability in plasma from Black 6-Cg mice. It is filed as in vitro ADME. The note with it: Black 6-Cg (B6-Cg), mouse, 37°C, up to 6 h, acetonitrile quench, LC-MS/MS. As for the experimental part:
A solution of a Pin1 inhibitor was spiked into blank plasma at 1 μg/mL in various solutions, including an aqueous buffer (1× phosphate-buffered saline; Fisher Scientific, Fair Lawn, NJ), human plasma (Innovative Research Inc., Novi, MI), wild-type mouse plasma (Innovative Research Inc., Novi, MI), plasma form esterase-deficient mice (City of Hope, Duarte, CA), and plasma from Black 6-Cg mice (City of Hope, Duarte, CA).
The spiked plasma samples were incubated at 37°C for up to 6 h. At each designated time point, a 20 μL aliquot of the incubation sample was removed and quenched in 100 μL of acetonitrile. At the end of the incubation, the quenched samples were vortexed and centrifuged for 10 min at 4°C and 20,000 × g. The resulting supernatant was reconstituted and analyzed by LC-MS/MS.
Table S2. Stability half-life of agents reported in Table 1 after incubation at 37 °C in various media. Acq represents aqueous buffer composed of 1x phosphate buffered saline (Fisher Scientific, Fair Lawn, NJ); human represents human plasma (Innovative Research Inc., Novi, MI); mouse wt represents wild type mouse plasma (Innovative Research Inc., Novi, MI); mouse ES1e represents plasma form esterase deficient mice (City of Hope, Duarte, CA); mouse B6-Cg represents plasma from black 6-Cg mice (City of Hope, Duarte, CA). See Figure 1 for the chemical structures of these compounds.
Compound Acq Human Mouse Mouse ES1e Mouse

Another data set deals with T2, human Pin1 (Homo sapiens, UniProt Q13526).
T2 construct: Residues 1–163 of human Pin1 were expressed with a thrombin cleavage site and a HisTag at the N-terminus; 6xHis (N); thrombin cleavage site (N); made in house; host or cells: E. coli
Description: Covalent complex formation with Pin1 by mass spectrometry. It is filed as binding. The note with it: ligand 20 μM, 2:1 ligand-to-protein ratio, 10 min incubation.

The target in another data set is T3, Pin1 in KPC cells (Mus musculus, UniProt Q9QUR7).
T3 construct: endogenous in cells; host or cells: KPC
Description: Pin1 degradation by western blot in KPC cells. It is filed as cell-based. The conditions noted are these: 0.5-15 μM for 24 h, Pin1 relative to β-actin. Here is the method:
as §1, §2, §3

For a further data set, the system named is CD-1 mice. It is filed as in vivo, mouse. As for the experimental part: The effect of Pin1 degradation by 164B8 on cell viability was assessed using live-cell analysis (IncuCyte S3). […] Furthermore, to evaluate the acute single-dose toxicity of 164B8 in vivo, CD-1 immune-competent mice were exposed to increasing doses of 164B8. […] Therefore, a maximum tolerated dose was not reached (Figure S12).
Figure S12: A) Acute toxicity study at 100mg/kg. In this preliminary safety study, 3 CD -1 mice were treated with a single dose of 100 mg/kg of 164B8. The injections were administered intraperitoneally (ip), and the body weight of the mice was measured for several days after the injection. B) Body weight control during the in -vivo efficacy study. The body weights of the mice in the three groups were measured on the day of treatment (day 0) and 7 and 14 days after.
(1 picture or pasted object on this page, not shown here)

T2 sequence (Q13526 whole entry, the tested form may be a part): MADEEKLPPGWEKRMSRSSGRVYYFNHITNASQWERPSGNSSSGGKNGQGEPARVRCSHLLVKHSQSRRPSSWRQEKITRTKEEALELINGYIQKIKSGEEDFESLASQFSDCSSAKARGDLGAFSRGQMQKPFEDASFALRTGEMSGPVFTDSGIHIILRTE
T1 sequence (Q13526 whole entry): as the sequence (Q13526 whole entry, the tested form may be a part) above
T3 sequence (Q9QUR7 whole entry): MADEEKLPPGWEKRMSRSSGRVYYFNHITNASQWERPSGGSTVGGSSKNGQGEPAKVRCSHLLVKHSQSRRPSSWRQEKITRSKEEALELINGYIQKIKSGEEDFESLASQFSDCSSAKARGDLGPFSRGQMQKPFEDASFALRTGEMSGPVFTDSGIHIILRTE

As for `CNC(=O)[C@H](Cc1c[nH]c2ccccc12)NC(=O)[C@@H]1CCCCN1C(=O)[C@H](Cc1c[nH]c2cc(Cl)ccc12)NC(=O)CCl` [164B8] (ClAc-[Trp(6-Cl)]-[Pip]-Trp-NHMe), the “DC50 of Pin1 degradation” value at Pin1 in MIA PaCa-2 cells and at Pin1 in KPC cells was “sub-micromolar” in each case. Further, the half-life at 1 μg/mL in data set [1] was > 5 h. In addition, the “% Complex (MS)” value on human Pin1 is listed as “∼100%”. In addition, the Acute single-dose toxicity entry in the data set on CD-1 mice (100 mg/kg single dose intraperitoneally (highest soluble dose), monitored over 2 weeks, 3 mice) was “did not produce any observable signs of acute toxicity”. For the same compound, in the data set with CD-1 mice (single intraperitoneal dose up to 100 mg/kg), the Maximum tolerated dose entry is “not reached”.
